From patent publication US20250025484A1, “POLYMERSOME NANOPARTICLES EXHAUSTING INTRACELLUAR AMINO ACID FOR CANCER THERAPY AND METHODS THEREOF” (THE UNIVERSITY OF HONG KONG, priority 2023, published 2025) come the findings set out here.

What all share (type): cell-based, human
Experiment [1] deals with A549 cells. The experiment is described as follows: DQ-BSA internalization and degradation analysis. How it is done: For in vitro fluorescent imaging detection, the cells were seeded on Nunc glass bottom confocal dishes (Thermo Fischer Scientific, USA) for 24 h. […] TMR-Dextran (0.125 mg/mL) was applied for 1 h as a macropinocytosis marker. Subsequently, after washed with PBS three times, the cells were fixed in 3.7% paraformaldehyde solution in PBS for 10 min, followed by washing with PBS three times and staining with DAPI according to the protocol (Thermo Fischer Scientific, D1306). After washing with PBS three times, the cells were mounted with SlowFade Diamond Antifade Mountant (Thermo Fischer Scientific, S36963). The in vivo TUNEL assay was conducted using the one-step TUNEL assay kit ([…], Beyotime, China). The Zeiss LSM 900 inverted confocal microscope equipped with 10×0.45 NA, 20×0.8 NA and 40×1.4 NA lens was employed to analyze intracellular fluorescent signals. The same exposure settings were used across all conditions in each individual experiment. The cells were seeded in 12-well plates at 1×10^5 density. Unless explained, the cells were incubated with FITC-BSA (0.2 mg/mL), DQ-BSA (10 μg/mL), or Me4BodipyFL-Ahx3Leu3VS (1 μM) for 4 h for protein internalization, extracellular protein degradation, and proteasome activity analysis, respectively. […] After washing with PBS three times, the cells were harvested and analyzed by Agilent NovoCyte Quanteon analyzer.

Experiment [2] has as its system A549 cells. Nature of the experiment: TMR-Dextran internalization (macropinocytosis marker). Conditions: EBSS plus EIPA (50 μM, pretreated 1 h before). On the procedure:
(§1) For in vitro fluorescent imaging detection, the cells were seeded on Nunc glass bottom confocal dishes (Thermo Fischer Scientific, USA) for 24 h. Unless explained, the cells were incubated with FITC-BSA (0.2 mg/mL), BSA-AF647 (0.05 mg/mL), or DQ-BSA (10 μg/mL) for 4 h for protein internalization and extracellular protein degradation analysis, respectively. TMR-Dextran (0.125 mg/mL) was applied for 1 h as a macropinocytosis marker. Subsequently, after washed with PBS three times, the cells were fixed in 3.7% paraformaldehyde solution in PBS for 10 min, followed by washing with PBS three times and staining with DAPI according to the protocol (Thermo Fischer Scientific, D1306). After washing with PBS three times, the cells were mounted with SlowFade Diamond Antifade Mountant (Thermo Fischer Scientific, S36963). The in vivo TUNEL assay was conducted using the one-step TUNEL assay kit (C1088, Beyotime, China). The Zeiss LSM 900 inverted confocal microscope equipped with 10×0.45 NA, 20×0.8 NA and 40×1.4 NA lens was employed to analyze intracellular fluorescent signals. The same exposure settings were used across all conditions in each individual experiment.
(§2) The cells were seeded in 12-well plates at 1×10^5 density. […] After washing with PBS three times, the cells were harvested and analyzed by Agilent NovoCyte Quanteon analyzer.

In experiment [3] the test system is A549 cells. Nature of the experiment: FITC-BSA protein internalization. On the procedure: as §1, §2
Experiment [4] concerns K48-polyubiquitinated proteins in A549 cells. Nature of the experiment: Western blot of K48-polyubiquitinated proteins. The following applies: EBSS plus BTZ (10 μM), 2 h or 24 h. On the procedure: The cells were plated in 12-well plates at 1×10^5 density and incubated for 24 h. […] Total protein concentration was determined by pierce BCA protein assay kit (Thermo Fischer Scientific, #23225). Equal amounts of proteins were loaded. SDS-PAGE electrophoresis was utilized to separate proteins, which were subsequently transferred to a nitrocellulose membrane through the wet transfer system. The membranes were blocked with 5% BSA in TBST at room temperature for 1 h and incubated with indicated primary antibodies overnight under 4° C. After washed with TBST, the blots were incubated with secondary antibodies for 1 h at room temperature. After washed with TBST three times, the proteins blots were visualized by Clarity Western ECL Substrate (BioRad) and captured by ChemiDoc Imaging System (BioRad). The following antibodies were used: K48-polyubiquitinated proteins (Cell signaling technology, #8081), p-S6K (Cell signaling technology, #9234), S6K (Cell signaling technology, #2708), mTOR (Cell signaling technology, #2983), β-Actin (Cell signaling technology, #4967), SQSTM1 (Abcam, ab91526), HRP-conjugated secondary antibody (Abcam, ab6789), HRP-conjugated secondary antibody (Abcam, ab6721).

For experiment [5], the system named is A549 cells. The experiment is described as follows: Cytotoxicity assay (MTT). Conditions: BTZ (20 μM), EBSS vs DMEM, 24 h. How it is done:
The cells were seeded in 96-well plates and cultured for 24 h. To investigate the influence of starvation on BTZ treatment, the cells were incubated with BTZ (20 μM) or DMSO, in complete DMEM or EBSS medium for 24 h. To investigate the combination effect of EIPA and BTZ, the cells were treated with a series of concentration of EIPA and BTZ in EBSS (plus 3% BSA) medium for 24 h. 10 μL of MTT (5 mg/mL) were added into each well and incubated for 2-4 h. Then the supernatant was changed with 100 μL DMSO to dissolve the precipitate. Subsequently, the absorbance of the solution at 570 nm and 630 nm was measured by a microplate reader (SpectraMax M4, Molecular Devices LLC, San Jose, CA). The cell viability was calculated by OD570-OD630 and normalized to DMSO control group.

Experiment [6] relates to SQSTM1. The experiment is described as follows: Western blot of SQSTM1. The following applies: A549 cells, EBSS plus BSA medium, 4 h. On the procedure:
The cells were plated in 12-well plates at 1×10^5 density and incubated for 24 h. Subsequently, the cells received indicated treatments for 4 h and the cells were washed with 1×PBS three times and harvested with RIPA buffer (supplemented with Halt protease and phosphatase inhibitor cocktail, Thermo Fischer Scientific, USA). Total protein concentration was determined by pierce BCA protein assay kit (Thermo Fischer Scientific, #23225). Equal amounts of proteins were loaded. SDS-PAGE electrophoresis was utilized to separate proteins, which were subsequently transferred to a nitrocellulose membrane through the wet transfer system. The membranes were blocked with 5% BSA in TBST at room temperature for 1 h and incubated with indicated primary antibodies overnight under 4° C. After washed with TBST, the blots were incubated with secondary antibodies for 1 h at room temperature. After washed with TBST three times, the proteins blots were visualized by Clarity Western ECL Substrate (BioRad) and captured by ChemiDoc Imaging System (BioRad). […]
(Immunoblotting shows a protein as a band on a membrane.)

Experiment [7] deals with proteasome. The experiment is described as follows: Proteasome activity probe (Me4BodipyFL-Ahx3Leu3VS) flow cytometry. The following applies: A549 cells, EBSS plus BTZ (10 μM), 4 h, vs EBSS. On the procedure:
The cells were seeded in 12-well plates at 1×10^5 density. Unless explained, the cells were incubated with FITC-BSA (0.2 mg/mL), DQ-BSA (10 μg/mL), or Me4BodipyFL-Ahx3Leu3VS (1 μM) for 4 h for protein internalization, extracellular protein degradation, and proteasome activity analysis, respectively. TMR-Dextran (0.125 mg/mL) was applied for 1 h as a macropinocytosis marker. After washing with PBS three times, the cells were harvested and analyzed by Agilent NovoCyte Quanteon analyzer.
On the technique in general: A flow cytometer gives signals particle by particle.

Experiment [8] relates to A549 cells. The experiment is described as follows: mCherry-GFP-LC3 reporter and BSA-AF647 internalization (CLSM). Conditions: EBSS plus BTZ, 4 h, vs starved cells. How it is done: as §1, with “experiment. […]” for “experiment.”

The structures appear in SMILES notation.

For `CCN(c1nc(N)c(C(=O)N=C(N)N)nc1Cl)C(C)C` [EIPA, 5-(n-ethyl-n-isopropyl)-amiloride], in experiment [1] (A549 cells pre-incubated with DQ-BSA 1 h, then EBSS with 3% BSA plus EIPA 3 h, vs starvation group), the “fluorescence intensity of DQ-BSA (intracellular protein degradation)” value is “further increased the fluorescence intensity of DQ-BSA”. For the same molecule, the “TMR-Dextran internalization (macropinocytosis)” value in experiment [2] is on record as “inhibited”. In experiment [3] (EBSS plus EIPA (50 μM, pretreated 1 h before), 1 h), the “starvation-amplified FITC-BSA uptake” value is given as “notably blocked”.

For the molecule `CC(C)C[C@H](NC(=O)[C@H](Cc1ccccc1)NC(=O)c1cnccn1)B(O)O` [BTZ, bortezomib], in experiment [1] (A549 cells, EBSS plus BTZ (10 μM), 4 h, vs EBSS), the “fluorescence intensity of DQ-BSA (internalized protein degradation)” value is given as “substantially decreased”. Moreover, the “level of K48-polyubiquitinated proteins” value in experiment [4] was “profound accumulation of polyubiquitinated proteins”. Further, the FITC-BSA protein internalization result in experiment [3] (EBSS plus BTZ, 4 h) was “further increased protein internalization”. Also, the cell viability result in experiment [5] is reported as “much more significant decrease of cell viability in starved cancer cells”. Besides, the SQSTM1 expression level result in experiment [6] was “exacerbated starvation-induced SQSTM1 decrease”. Moreover, in experiment [7], the “fluorescence intensity of proteasome probe (proteasome activity)” value is given as “remarkably reversed”. Further, in experiment [8], the “LC3 puncta (autophagy flux)” value was “further enhanced” and the “percentage of BSA-AF647 colocalized with LC3 puncta” value is “increased the percentage of BSA-AF647 colocalized with LC3 puncta”.
